Measured values taken from patent publication US7427625B2, “Substituted thiatriazaacenaphthylene-6-carbonitrile kinase inhibitors” (Janssen Pharmaceutica, N.V., priority 2006, dated 2008).

Legend:
[1] = target: T1, EGFR (Homo sapiens, UniProt P00533); assay: EGFR Kinase Assay; assay type: biochemical; conditions: for inhibition at 2 µM: test concentration of 2 μM, read-out: EGFR percent inhibition
T1 construct: The intracellular portion of EGFR started at nucleotide 2189 (corresponding to amino acid 667) and ended at the termination codon; made in house; host or cells: Sf9 insect cells (baculovirus)
T1 sequence (P00533 669-1210 limits assumed): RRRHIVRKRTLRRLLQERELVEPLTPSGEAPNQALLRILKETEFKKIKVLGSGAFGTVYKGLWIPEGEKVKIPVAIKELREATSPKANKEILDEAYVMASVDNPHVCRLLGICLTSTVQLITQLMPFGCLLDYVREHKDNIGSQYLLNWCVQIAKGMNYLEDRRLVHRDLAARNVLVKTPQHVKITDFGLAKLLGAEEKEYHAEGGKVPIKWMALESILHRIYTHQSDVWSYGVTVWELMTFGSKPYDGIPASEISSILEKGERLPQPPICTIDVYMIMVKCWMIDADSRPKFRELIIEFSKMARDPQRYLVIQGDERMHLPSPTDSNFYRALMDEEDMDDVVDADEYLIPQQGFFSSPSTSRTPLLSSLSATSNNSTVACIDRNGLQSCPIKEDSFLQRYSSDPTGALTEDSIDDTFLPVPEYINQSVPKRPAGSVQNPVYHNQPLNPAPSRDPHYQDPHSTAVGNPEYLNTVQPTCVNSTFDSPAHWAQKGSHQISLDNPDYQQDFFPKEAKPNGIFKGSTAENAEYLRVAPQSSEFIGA
From the text: The EGFR kinase used was a fusion of Glutathione-S-Transferase (GST) and a PCR amplified intracellular portion of EGFR (NM_005228). The intracellular portion of EGFR started at nucleotide 2189 (corresponding to amino acid 667) and ended at the termination codon. The portion was PCR amplified with primers that added the lambda attB sequences to each end, recombined into an entry vector, then into a GST destination vector (as described in Gateway Technologies Manual by Invitrogen Corporation, Carlsbad, Calif.).
The destination vector was recombined in the DH10BAC strain of bacteria to produce a bacmid. The bacmid was transfected into Sf 9 cells and the supernatant containing the baculovirus was collected. The GSTEGFR protein was purified using large cultures of Sf 9 cells infected with stock virus. After an appropriate period of time, the cells were collected and lysed. The GSTEGFR was then purified from the lysate on Glutathione-Sepharose columns (as described by Amersham Biosciences, Buckinghamshire, United Kingdom).
The EGFR substrate was prepared by biotinylating polyGluTyr (128 mg) (Sigma, St. Louis, Mo.) in a 1×PBS buffer incubated together with a 12-fold molar excess of Sulfo-NHS-LC-Biotin on ice for at least 2 hrs. The free biotin was separated from the biotinylated polyGluTyr on a gel filtration column.
A mixture of a 10× kinase buffer (500 mM Tris at pH 8.0, 100 mM Magnesium Chloride and 1 mM Sodium Vanadate), DTT (1 mM final from 500 mM stock), ATP (5 μM final from 10 mM stock), biotinylated polyGluTyr (10 μg/μL stock), γ-^33P ATP (10 μCi/μL stock) and water was added to each well (90 μL/well) of a Streptavidin Flashplate (Perkin Elmer, Wellesley, Mass.).
Test compound in 100% DMSO (2 μL) was added to the appropriate wells. Diluted GSTEGFR (1:300 dilution in 50 mM Tris at pH 8.0 and 0.1% bovine serum albumin) (10 μL) was added to the wells to initiate the reactions.
The plates were incubated at 30° C. for 1 hr with shaking. The reacted contents were removed and the plates were sequentially washed three times with a 1×PBS stop buffer (300 μL without Magnesium and Calcium) and 100 mM EDTA. After the final wash, the same stop buffer (200 μL) was added to the wells. The plates were then sealed and read on the TopCount scintillation counter.
Test compounds were assayed in triplicate at 16 concentrations at half-log dilutions starting at 200 uM. A maximum and minimum signal for the assay was determined on each plate. The percent inhibition of a test compound was calculated according to the formula
For a series of test concentrations, the IC50 was derived by graphing percent inhibition against the log of the concentrations tested for a given compound. For those compounds without an IC50, the percent inhibition results are shown at a test concentration of 2 μM.

[2] = target: T2, VEGF-R2 (Rattus norvegicus, UniProt O08775); assay: VEGF-R2 Screening Assay; assay type: biochemical; conditions: for inhibition at 1 µM: test concentration of 1 μM, read-out: VEGF-R2 percent inhibition
T2 construct: polyhistidine (N)
T2 sequence (O08775 786-1343): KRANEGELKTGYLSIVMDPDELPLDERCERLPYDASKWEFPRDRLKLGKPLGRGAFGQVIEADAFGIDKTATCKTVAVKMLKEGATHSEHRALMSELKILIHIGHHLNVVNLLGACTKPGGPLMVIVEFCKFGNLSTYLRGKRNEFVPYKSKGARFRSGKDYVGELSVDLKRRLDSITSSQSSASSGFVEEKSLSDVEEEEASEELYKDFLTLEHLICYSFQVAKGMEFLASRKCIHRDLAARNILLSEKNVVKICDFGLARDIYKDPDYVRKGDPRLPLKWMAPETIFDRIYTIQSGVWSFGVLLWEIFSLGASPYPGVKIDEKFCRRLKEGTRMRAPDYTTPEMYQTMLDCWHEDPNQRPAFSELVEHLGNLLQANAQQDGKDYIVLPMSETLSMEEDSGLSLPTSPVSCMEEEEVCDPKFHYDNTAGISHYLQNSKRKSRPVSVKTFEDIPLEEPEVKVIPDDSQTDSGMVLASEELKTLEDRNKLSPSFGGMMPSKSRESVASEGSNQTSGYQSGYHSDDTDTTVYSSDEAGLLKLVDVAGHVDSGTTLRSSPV
Description: (§1) A kinase reaction mixture was prepared containing 50 mM Tris-HCl at pH 8, 10 mM, MgCl20.1 mM […], 1 mM DTT, 10 μM ATP, 0.025 μM biotinylated histone-H1 peptide substrate and 0.2 μCuries per well ^33P-γ-ATP (2000-3000 Ci/mmol). 70 μL of the kinase reaction mixture was dispensed into the well of a Streptavidin FlashPlate.
(§2) Test compound stock in 100% DMSO (1 μL) was added to the wells resulting in a final concentration of 1% DMSO in the reaction with a 100 μL final reaction volume. Each enzyme was diluted in 50 mM Tris-HCl pH=8.0, 0.1% BSA and 30 μL was added to each well to initiate the reaction. The reaction was incubated for one hour at 30° C. At the end of the 1 hr incubation, the reaction was terminated by aspirating the mixture from the plate and washing the wells twice with PBS containing 100 mM EDTA. The biotinylated peptide substrate became immobilized on the Flashplate^198 and the incorporation of ^33P-γ-ATP was measured by reading the plate on a scintillation counter. Inhibition of the enzymatic activity was measured by observing a reduced amount of ^33P-γ-ATP incorporated into the immobilized peptide.
The VEGF-R2 enzyme is a fusion protein containing a polyhistidine tag at the N terminus followed by amino acids 786 to 1343 of the rat VEGF-R2 kinase domain (Accession number U93306). The assay used 150 ng of the N-terminal biotinylated peptide biotin-KHKKLAEGSAYEEV-amide (VEGF-R2) per well.
(§3) The IC50 was derived according to the procedure described in Example 2. For those compounds without an IC50, the percent inhibition results are shown at a test concentration of 1 μM.

[3] = target: T3, Aurora-A (Mus musculus, UniProt P97477); assay: Aurora-A Screening Assay; assay type: biochemical, murine; conditions: for inhibition at 1 µM: test concentration of 1 μM, read-out: Aurora-A percent inhibition
T3 construct: followed by the full length protein encoding the murine Aurora-A; polyhistidine (N); made in house; host or cells: sf9 insect cells
T3 sequence (P97477 1-395): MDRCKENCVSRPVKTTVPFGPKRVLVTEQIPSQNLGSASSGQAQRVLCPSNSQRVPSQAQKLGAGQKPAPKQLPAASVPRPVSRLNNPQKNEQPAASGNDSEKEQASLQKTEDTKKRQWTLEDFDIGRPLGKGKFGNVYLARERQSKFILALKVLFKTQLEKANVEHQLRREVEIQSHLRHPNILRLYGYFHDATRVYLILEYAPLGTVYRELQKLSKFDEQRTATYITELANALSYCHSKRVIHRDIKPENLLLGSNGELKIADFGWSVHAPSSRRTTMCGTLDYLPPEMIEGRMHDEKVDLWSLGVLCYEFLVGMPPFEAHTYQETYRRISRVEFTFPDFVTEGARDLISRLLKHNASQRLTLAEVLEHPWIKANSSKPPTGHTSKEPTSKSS
Description: as §1, §2
Aurora-A is a fusion protein containing a polyhistidine tag at the N terminus followed by the full length protein encoding the murine Aurora-A (Accession number GB BC014711) expressed and purified from sf9 insect cells. The assay used 400 ng of the N-terminal biotinylated peptide biotin-GRTGRRNSI-amide (Aurora-A) per well.
as §3

[4] = target: T4, HER-2 (Homo sapiens, UniProt P04626); assay: HER-2 Kinase Assay; assay type: biochemical; conditions: for inhibition at 1 µM: test concentration of 1 μM, read-out: HER-2 percent inhibition
T4 construct: the nucleotides encoding amino acids 679 to 1255 of HER-2; purchased Proqinase (Freiburg, Germany)
T4 sequence (P04626 679-1255): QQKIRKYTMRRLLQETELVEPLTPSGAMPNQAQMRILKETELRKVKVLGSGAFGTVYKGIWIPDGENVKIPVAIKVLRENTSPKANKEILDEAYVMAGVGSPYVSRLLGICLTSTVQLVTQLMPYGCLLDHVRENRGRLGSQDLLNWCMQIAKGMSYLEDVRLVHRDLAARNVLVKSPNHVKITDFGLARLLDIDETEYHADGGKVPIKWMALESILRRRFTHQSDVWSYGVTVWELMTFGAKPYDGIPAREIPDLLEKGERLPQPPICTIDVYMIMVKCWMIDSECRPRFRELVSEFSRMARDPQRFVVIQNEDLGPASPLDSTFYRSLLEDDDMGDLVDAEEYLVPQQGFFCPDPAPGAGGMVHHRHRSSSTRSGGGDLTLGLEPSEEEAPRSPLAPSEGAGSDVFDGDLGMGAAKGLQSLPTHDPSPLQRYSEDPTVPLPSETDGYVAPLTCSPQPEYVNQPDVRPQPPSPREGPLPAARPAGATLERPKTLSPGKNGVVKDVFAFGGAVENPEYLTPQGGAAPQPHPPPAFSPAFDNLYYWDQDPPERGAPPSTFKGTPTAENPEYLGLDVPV
Description: HER-2 kinase was purified at Proqinase (Freiburg, Germany) from a construct that consisted of a fusion of GST (Glutathione-S-Transferase), HIS6-Thrombin and the nucleotides encoding amino acids 679 to 1255 of HER-2.
A mixture of a 10× kinase reaction buffer (600 mM Hepes at pH 7.5, 30 mM Magnesium Chloride, 0.03 mM Sodium Vanadate and 500 μg/mL PEG 20,000), DTT (1.2 mM final from a 10 mM stock), ATP (1 μM from a 10 mM stock), biotinylated polyGluTyr (1.5 ng/μL final from stock of 1 μg/μL prepared by Upstate Biotechnologies, Lake Placid, N.Y.), Manganese Chloride (3 mM final from a 1 M stock), γ-^33P-ATP (10 μCi/μL stock) and water (70 μL/well) was added to each well of a Streptavidin Flashplate (Cat. #SMP103, NEN, Boston, Mass.).
Test compound stock (1 μL) was added to the appropriate wells. Diluted GSTHER2 kinase (6.7 ng/μL diluted into 50 mM Tris-HCl at pH 8.0 and 0.1% bovine serum albumin) (30 μL) was added (total volume of 200 ng/well) to initiate the reactions.
The reaction plates were incubated at 30° C. for 1 hr. The reaction was terminated by aspiring the reaction mixture from the plate wells and washing the wells three times with a 1×PBS stop buffer (300 μL) and 100 mM EDTA. After the final wash, the same stop buffer (200 μL) was again added to the wells. The plates were then sealed and read on the TopCount scintillation counter.
as §3

Row | SMILES | inhibition at 2 µM [1] | inhibition at 1 µM [2] | inhibition at 1 µM [3] | inhibition at 1 µM [4] | IC50 [1] | IC50 [2] | IC50 [3] | IC50 [4]
1 | N#Cc1cnc2sc(C(=O)Nc3ccncc3)c3c2c1N(c1c(Cl)ccc2c1OCO2)C(=O)N3 [Cpd 40, 5-(5-chloro-benzo[1,3]dioxol-4-yl)-6-cyano-4-oxo-4,5-dihydro-3H-1-thia-3,5,8-triaza-acenaphthylene-2-carboxylic acid pyridin-4-ylamide] | 30% | 9% | 15% | 0% | – | – | – | –
2 | N#Cc1cnc2sc(C(=O)Nc3cccnc3)c3c2c1N(c1c(Cl)ccc2c1OCO2)C(=O)N3 [Cpd 36, 5-(5-chloro-benzo[1,3]dioxol-4-yl)-6-cyano-4-oxo-4,5-dihydro-3H-1-thia-3,5,8-triaza-acenaphthylene-2-carboxylic acid pyridin-3-ylamide] | 35% | 15% | 21% | 29% | – | – | – | –
3 | N#Cc1cnc2sc(C(=O)Nc3ccc(CN4CCC(CO)CC4)cc3)c3c2c1N(c1c(Cl)ccc2c1OCO2)C(=O)N3 [Cpd 22, 5-(5-chloro-benzo[1,3]dioxol-4-yl)-6-cyano-4-oxo-4,5-dihydro-3H-1-thia-3,5,8-triaza-acenaphthylene-2-carboxylic acid [4-(4-hydroxymethyl-piperidin-1-ylmethyl)-phenyl]-amide] | – | – | 15% | 48% | 0.567 µM | > 100 µM | – | –
4 | CCOC(=O)c1sc2nc(O)c(C#N)c3c2c1NC(=O)N3c1ccc(Oc2ccccc2)cc1 [Cpd 52, 6-cyano-7-hydroxy-4-oxo-5-(4-phenoxy-phenyl)-4,5-dihydro-3H-1-thia-3,5,8-triaza-acenaphthylene-2-carboxylic acid ethyl ester] | – | – | – | – | 0.0169 µM | > 100 µM | > 100 µM | > 10 µM
5 | N#Cc1cnc2sc(C(=O)N3CCCC(F)C3)c3c2c1N(c1c(Cl)ccc2c1OCO2)C(=O)N3 (stereo not shown) [Cpd 43, 5-(5-chloro-benzo[1,3]dioxol-4-yl)-2-(3-fluoro-piperidine-1-carbonyl)-4-oxo-4,5-dihydro-3H-1-thia-3,5,8-triaza-acenaphthylene-6-carbonitrile] | – | – | – | – | – | ~100 µM | > 10 µM | 10.6 µM
6 | N#Cc1cnc2sc(C(=O)Nc3ccc(CN4CCCC(F)C4)cc3)c3c2c1N(c1c(Cl)ccc2c1OCO2)C(=O)N3 (stereo not shown) [Cpd 44, 5-(5-chloro-benzo[1,3]dioxol-4-yl)-6-cyano-4-oxo-4,5-dihydro-3H-1-thia-3,5,8-triaza-acenaphthylene-2-carboxylic acid [4-(3-fluoro-piperidin-1-ylmethyl)-phenyl]-amide] | – | – | – | – | – | > 10 µM | 1.1 µM | 1.1 µM

Results, then the compound that gave them:

Row | inhibition at 2 µM [1] | inhibition at 1 µM [2] | inhibition at 1 µM [3] | inhibition at 1 µM [4] | IC50 [1] | IC50 [2] | IC50 [3] | IC50 [4] | SMILES
7 | 48% | – | – | – | – | > 100 µM | > 100 µM | > 10 µM | COC1CCN(Cc2ccc(NC(=O)c3sc4ncc(C#N)c5c4c3NC(=O)N5c3ccc(Oc4ccccc4)cc3)cc2)CC1 [Cpd 51, 6-cyano-4-oxo-5-(4-phenoxy-phenyl)-4,5-dihydro-3H-1-thia-3,5,8-triaza-acenaphthylene-2-carboxylic acid [4-(4-methoxy-piperidin-1-ylmethyl)-phenyl]-amide]
8 | – | 11% | 23% | – | 2.02 µM | – | – | > 1 µM | N#Cc1cnc2sc(C(=O)Nc3ccc(CN4CCC(F)CC4)cc3)c3c2c1N(c1c(Cl)ccc2c1OCO2)C(=O)N3 [Cpd 26, 5-(5-chloro-benzo[1,3]dioxol-4-yl)-6-cyano-4-oxo-4,5-dihydro-3H-1-thia-3,5,8-triaza-acenaphthylene-2-carboxylic acid [4-(4-fluoro-piperidin-1-ylmethyl)-phenyl]-amide]
9 | – | – | – | – | 0.124 µM | > 10 µM | > 100 µM | 2.2 µM | N#Cc1cnc2sc(C(=O)Nc3ccc(CN4CCOCC4)cc3)c3c2c1N(c1ccc(Oc2ccccc2)cc1)C(=O)N3 [Cpd 50, 6-cyano-4-oxo-5-(4-phenoxy-phenyl)-4,5-dihydro-3H-1-thia-3,5,8-triaza-acenaphthylene-2-carboxylic acid (4-morpholin-4-ylmethyl-phenyl)-amide]
